Data as given in patent US20260070929A1, “METHODS AND COMPOSITIONS FOR MODULATING KRAS(G12D)” (Ranok Therapeutics (Hangzhou) Co. LTD., priority 2022, published 2026).

Key:
[1] = tested on: A-427 lung carcinoma cells [heterozygous G12D]; test: Cancer cell line proliferation (CellTiter-Glo), A-427; type: cell-based; details: Homo sapiens, A-427 cells, 72 hr treatment, read-out: A427 CTG (EC50)
Protocol: (§1) The following cancer cell lines were employed: AGS gastric carcinoma [heterozygous G12D](ATCC, CRL-1739); A-427 lung carcinoma [heterozygous G12D](ATCC, HTB-53); ASPC1 pancreatic adenocarcinoma [homozygous G12D](ATCC, CRL-1682) and SW1990 pancreatic adenocarcinoma [homozygous G12D](ATCC CRL-2172). Cell lines were cultured essentially according to ATCC recommendations.
(§2) AGS, A-427, ASPC1, SW1990, and GP2D cells were plated in 96-well tissue culture plates at 4,000 cells/well and incubated at 37° C./5% CO2 for 72 hr in 100 μl of media. 3-fold serial dilutions of each test compound were prepared ranging from 20 μM to 1.02 nM. Each cell line was then treated with test compounds at various concentrations with a final concentration of 0.5% DMSO/well, and then incubated at 37° C./5% CO2 for 72 hr. 100 µl of CellTiter-Glo® Reagent (Promega Corporation, Madison, WI) was added to each well and processed according manufacturer's protocol. Results were analyzed and EC50 values were calculated in GraphPad 7 software.

[2] = target: T1, KRAS(G12D)/SOS1 (Homo sapiens, UniProt P01116, G12D); test: KRAS(G12D)/SOS1 homogeneous time-resolved fluorescence (HTRF) assay; type: binding; details: absence of GTP; 4° C., 3 hr
T1 construct: purchased Cisbio 63ADK000CB17PEH
T1 sequence (P01116 1-188 isoform P01116-2 G12D): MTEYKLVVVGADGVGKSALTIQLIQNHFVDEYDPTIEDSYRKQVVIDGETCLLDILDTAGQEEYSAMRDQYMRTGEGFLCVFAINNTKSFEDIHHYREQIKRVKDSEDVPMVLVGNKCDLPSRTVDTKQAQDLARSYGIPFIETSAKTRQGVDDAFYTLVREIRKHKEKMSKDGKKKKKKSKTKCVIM
Protocol: Binding of test compounds to KRAS(G12D) target protein, which in turn blocks KRAS(G12D) interaction with the SOS1 protein, was measured in the absences of GTP by homogeneous time-resolved fluorescence using the KRAS-G12D/SOS1 Binding Assay Kit (Cisbio, 63ADK000CB17PEH), following the manufacturer's instructions, except as noted. 3-fold serial dilutions of each test compound were prepared ranging from 20 µM to 1.02 nM. The test compound was mixed and incubated with reaction components, incubated in a sealed plate at 4° C. for 3 hr and fluorescence was measured using a PerkinElmer Envision plate reader. The KRAS(G12D)-SOS1 IC50 values (the concentration of 50% of the maximal inhibition) were calculated using GraphPad Prism 7 software.

[3] = tested on: AGS gastric carcinoma cells [heterozygous G12D]; test: Cancer cell line proliferation (CellTiter-Glo), AGS; type: cell-based; details: Homo sapiens, 72 hr treatment, read-out: AGS CTG (EC50)
Protocol: as §1, §2

| SMILES | EC50 [1] [nM] | IC50 [2] [nM] | EC50 [3] [nM] |
| --- | --- | --- | --- |
| CCc1cc(-c2nnc(C(=O)NCC(F)(F)F)n2-c2ccc(CN3CCN([C@H]4C[C@@H](COc5nc(N6CC7CCC(C6)N7)c6cnc(-c7cccc(F)c7C)c(F)c6n5)N(C)C4)CC3)cc2)c(O)cc1O [Compound 79] | 100 to 1000 | > 1000 | 100 to 1000 |
| C#Cc1cccc2cccc(-c3ncc4c(N5CC6CCC(C5)N6)nc(OC[C@@H]5C[C@H](N6CCN(CCN(CC)C(=O)c7cc(C(C)C)c(O)cc7O)CC6)CN5C)nc4c3F)c12 [Compound 80] | > 1000 | < 100 | > 1000 |
| CCc1cc(-c2nnc(C(=O)NCC(F)(F)F)n2-c2ccc(CN3CCN([C@H]4C[C@@H](COc5nc(N6CC7CCC(C6)N7)c6cnc(-c7cccc(C)c7C)c(F)c6n5)N(C)C4)CC3)cc2)c(O)cc1O [Compound 81] | 100 to 1000 | > 1000 | 100 to 1000 |
| Cc1cccc(-c2ncc3c(N4CC5CCC(C4)N5)nc(OC[C@@H]4C[C@H](N5CCN(Cc6ccc(-n7c(C(=O)NC(C)C(F)(F)F)nnc7-c7cc(C(C)C)c(O)cc7O)cc6)CC5)CN4C)nc3c2F)c1C (stereo partly drawn) [Compound 82] | 100 to 1000 | > 1000 | 100 to 1000 |
| CCNC(=O)c1nnc(-c2cc(C(C)C)c(O)cc2O)n1-c1ccc(CN2CCN([C@H]3C[C@@H](COc4nc(N5CC6CNC(C6)C5)c5cnc(-c6cc(O)cc7ccccc67)c(F)c5n4)N(C)C3)CC2)cc1 (stereo partly drawn) [Compound 85] | 100 to 1000 | > 1000 | 100 to 1000 |
| C#Cc1cccc2cc(O)cc(-c3ncc4c(N5CC6CCC(C5)N6)nc(OC[C@@H]5C[C@H](N6CCN(Cc7ccc8c(c7)CN(C(=O)c7cc(C(C)C)c(O)cc7O)C8)CC6)CN5C)nc4c3F)c12 [Compound 86] | 100 to 1000 | < 100 | 100 to 1000 |
| C#Cc1cccc2cc(O)cc(-c3ncc4c(N5CC6CCC(C5)N6)nc(OC[C@@H]5C[C@H](N6CCN(Cc7ccc(-n8c(C(=O)NC(C)C)nnc8-c8cc(C(C)C)c(O)cc8O)cc7)CC6)CN5C)nc4c3F)c12 [Compound 87] | 100 to 1000 | < 100 | 100 to 1000 |
| CC(C)NC(=O)c1nnc(-c2cc(C(C)C)c(O)cc2O)n1-c1ccc(CN2CCN([C@H]3C[C@@H](COc4nc(N5CC6CCC(C5)N6)c5cnc(-c6ccccc6C(F)(F)F)c(F)c5n4)N(C)C3)CC2)cc1 [Compound 88] | 100 to 1000 | > 1000 | < 100 |
| CCNC(=O)c1nnc(-c2cc(C(C)C)c(O)cc2O)n1-c1ccc(CN2CCC(C(=O)N3CCN([C@H]4C[C@@H](COc5nc(N6CC7CCC(C6)N7)c6cnc(-c7ccccc7C(F)(F)F)c(F)c6n5)N(C)C4)CC3)CC2)cc1 [Compound 89] | < 100 | > 1000 | < 100 |
| CC(C)c1cc(C(=O)N2Cc3ccc(CN4CCC(C(=O)N5CCN([C@H]6C[C@@H](COc7nc(N8CC9CCC(C8)N9)c8cnc(-c9ccccc9C(F)(F)F)c(F)c8n7)N(C)C6)CC5)CC4)cc3C2)c(O)cc1O [Compound 91] | 100 to 1000 | > 1000 | 100 to 1000 |
| CC(C)c1cc(C(=O)N2Cc3ccc(CN4CCC(C(=O)N5CCN([C@H]6C[C@@H](COc7nc(N8CC9CCC(C8)N9)c8cnc(-c9cccc%10cccc(F)c9%10)c(F)c8n7)N(C)C6)CC5)CC4)cc3C2)c(O)cc1O [Compound 92] | 100 to 1000 | 100 to 1000 | 100 to 1000 |
| CC(C)c1cc(-c2nnc(C(=O)NC(C)C(F)(F)F)n2-c2ccc(CN3CCN([C@H]4C[C@@H](COc5nc(N6CC7CCC(C6)N7)c6cnc(-c7cccc8cccc(F)c78)c(F)c6n5)N(C)C4)CC3)cc2)c(O)cc1O (stereo partly drawn) [Compound 93] | 100 to 1000 | 100 to 1000 | < 100 |
| Cc1cccc2cccc(-c3ncc4c(N5CC6CCC(C5)N6)nc(OC[C@@H]5CC[C@H](CN6CCN(C(=O)C7CCN(Cc8ccc9c(c8)CN(C(=O)c8cc(C(C)C)c(O)cc8O)C9)CC7)CC6)N5C)nc4c3F)c12 [Compound 94] | 100 to 1000 | 100 to 1000 | 100 to 1000 |
| CCNC(=O)c1nnc(-c2cc(C(C)C)c(O)cc2O)n1-c1ccc(CN2CCN(C[C@H]3C[C@@H](COc4nc(N5CC6CCC(C5)N6)c5cnc(-c6cc(O)cc7ccccc67)c(F)c5n4)N(C)C3)CC2)cc1 [Compound 95] | 100 to 1000 | < 100 | < 100 |
| C#Cc1cccc2cc(O)cc(-c3ncc4c(N5CC6CCC(C5)N6)nc(OC[C@@H]5C[C@H](N6CCN(Cc7ccc(-n8c(C(=O)NCC)nnc8-c8cc(C(C)C)c(O)cc8O)cc7)CC6)CN5C)nc4c3F)c12 [Compound 96] | 100 to 1000 | < 100 | 100 to 1000 |
| C#Cc1cccc2cc(O)cc(-c3ncc4c(N5CC6CCC(C5)N6)nc(OC[C@@H]5C[C@H](N6CCN(C(=O)C7CCN(Cc8ccc9c(c8)CN(C(=O)c8cc(C(C)C)c(O)cc8O)C9)CC7)CC6)CN5C)nc4c3F)c12 [Compound 97] | 100 to 1000 | < 100 | 100 to 1000 |
| C#Cc1cccc2cc(O)cc(-c3ncc4c(N5CC6CCC(C5)N6)nc(OC[C@@H]5C[C@H](N6CCN(Cc7ccc(-n8c(C(=O)NC(C)C(F)(F)F)nnc8-c8cc(C(C)C)c(O)cc8O)cc7)CC6)CN5C)nc4c3F)c12 (stereo partly drawn) [Compound 98] | 100 to 1000 | < 100 | 100 to 1000 |
| C#Cc1cccc2cc(O)cc(-c3ncc4c(N5CC6CCC(C5)N6)nc(OC[C@@H]5C[C@H](N6CCN(Cc7ccc(-n8c(C(=O)NCC(F)(F)F)nnc8-c8cc(CC)c(O)cc8O)cc7)CC6)CN5C)nc4c3F)c12 [Compound 99] | 100 to 1000 | < 100 | 100 to 1000 |
| CC(C)c1cc(-c2nnc(C(=O)NC(C)C(F)(F)F)n2-c2ccc(CN3CCN([C@H]4C[C@@H](COc5nc(N6CC7CCC(C6)N7)c6cnc(-c7cc(O)cc8ccccc78)c(F)c6n5)N(C)C4)CC3)cc2)c(O)cc1O (stereo partly drawn) [Compound 100] | 100 to 1000 | < 100 | < 100 |
| CC(C)c1cc(-c2nnc(C(=O)NCC(F)(F)F)n2-c2ccc(CN3CCN([C@H]4C[C@@H](COc5nc(N6CC7CCC(C6)N7)c6cnc(-c7cc(O)cc8ccccc78)c(F)c6n5)N(C)C4)CC3)cc2)c(O)cc1O [Compound 101] | 100 to 1000 | < 100 | < 100 |
| COc1cccc2cccc(-c3ncc4c(N5CC6CCC(C5)N6)nc(OC[C@@H]5C[C@H](N6CCN(C(=O)C7CCN(Cc8ccc9c(c8)CN(C(=O)c8cc(C(C)C)c(O)cc8O)C9)CC7)CC6)CN5C)nc4c3F)c12 [Compound 104] | 100 to 1000 | > 1000 | 100 to 1000 |
| CCc1cc(-c2nnc(C(=O)NCC(F)(F)F)n2-c2ccc(CN3CCN([C@H]4C[C@@H](COc5nc(N6CC7CCC(C6)N7)c6cnc(-c7cccc8cccc(OC)c78)c(F)c6n5)N(C)C4)CC3)cc2)c(O)cc1O [Compound 105] | 100 to 1000 | > 1000 | 100 to 1000 |
| COc1cccc2cccc(-c3ncc4c(N5CC6CCC(C5)N6)nc(OC[C@@H]5C[C@H](N6CCN(Cc7ccc(-n8c(C(=O)NC(C)C(F)(F)F)nnc8-c8cc(C(C)C)c(O)cc8O)cc7)CC6)CN5C)nc4c3F)c12 (stereo partly drawn) [Compound 106] | 100 to 1000 | > 1000 | < 100 |
| CCc1cc(-c2nnc(C(=O)NCC(F)(F)F)n2-c2ccc(CN3CCN(C[C@H]4CC[C@@H](COc5nc(N6CC7CCC(C6)N7)c6cnc(-c7cccc8cccc(C)c78)c(F)c6n5)N4C)CC3)cc2)c(O)cc1O [Compound 108] | 100 to 1000 | 100 to 1000 | 100 to 1000 |
| CC(C)c1cc(-c2nnc(C(=O)NCC(F)(F)F)n2-c2ccc(CN3CCN([C@H]4C[C@@H](COc5nc(N6CC7CCC(C6)N7)c6cnc(-c7cccc8cccc(F)c78)c(F)c6n5)N(C)C4)CC3)cc2)c(O)cc1O [Compound 109] | 100 to 1000 | 100 to 1000 | < 100 |
| CC(C)c1cc(-c2nnc(C(=O)NC(C)C(F)(F)F)n2-c2ccc(CN3CCN(C[C@H]4C[C@@H](COc5nc(N6CC7CCC(C6)N7)c6cnc(-c7cc(O)cc8ccccc78)c(F)c6n5)N(C)C4)CC3)cc2)c(O)cc1O (stereo partly drawn) [Compound 118] | 100 to 1000 | < 100 | < 100 |
| C#Cc1cccc2cc(O)cc(-c3ncc4c(N5CC6CCC(C5)N6)nc(OCC5(CN6CCC(C(=O)N7CCN(Cc8ccc(-n9c(C(=O)NCC(F)(F)F)nnc9-c9cc(C(C)C)c(O)cc9O)cc8)CC7)CC6)CC5)nc4c3F)c12 [Compound 119] | 100 to 1000 | < 100 | < 100 |
